The record followed here is PubChem BioAssay AID179 (DTP/NCI, 2004).

SMILES strings stand for the structures. Activity calls are given as the source filed them.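 How the source made its calls: active means compounds giving half or more protection of infected cells from virus-caused growth loss, again on retest; inactive means the rest.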 Where a SMILES comes first, the peptide text is derived from it. The star is where a group is joined. Boc = CC(C)(C)OC(=O)*; OBn = c1ccc(CO*)cc1; Bn = c1ccc(C*)cc1

In general, EC50 refers to the concentration that produces a half-maximal response. What is called IC50 is the concentration at which inhibition is half-maximal. High values mean weaker potency in that assay, low ones greater potency in that assay.

The experiment deals with CEM cells HIV-1 protection, formazan growth assay. As to the kind of experiment: NCI AIDS Antiviral Assay. Particulars: for IC50: measured here: growth of uninfected CEM cells. In a few lines:
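Human CEM cells, uninfected and HIV-1-infected, exposed to five drug concentrations; growth measured by soluble formazan assay and scored as percent protection from infection, with protecting compounds retested.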

For `COc1ccc(C(OC(=O)[C@H](O[Si](C)(C)C(C)(C)C)[C@@H](NC(=O)c2ccccc2)c2ccccc2)c2ccc(OC)cc2)cc1`, the EC50 was > 200 µM and the 50% inhibitory concentration (IC50) was found to be 95.5 µM. The like results for `COc1cc(C)c(O)c(C/C=C(\C)CC2=C[C@@]3(C)CCC[C@@]3(C)[C@]3(C=CC(C)(C)O3)O2)c1` were, in that order, > 40.7 µM and 11 µM. With `OCC(O)C(OC1OC(CO)C(O)C(O)C1O)c1nn(-c2ccc(Cl)cc2)c2nc3cc(Cl)ccc3nc12` (centres undefined), the result was inactive. Turning to `COc1ccc(C2CC(=O)c3c(O)cc(OC4OC(COC5OC(C)C(O)C(O)C5O)C(O)C(O)C4O)cc3O2)cc1O` (centres undefined), the EC50 was 138 µM and the IC50 was 191 µM.

Turning to `CCOP(=O)(OCC)C(Nc1cccc(F)c1)c1ccccc1` (centres undefined), the EC50 is > 200 µM and the IC50 was determined as 123 µM. The like results for `C=C1CC[C@]2(C)C3CC[C@]4(C)C(C(C)CCC(=O)OC)CCC4[C@@H]3CC[C@@H]2C1` (some centres undefined) were, in that order, > 87.1 µM and > 87.1 µM.

In the case of `CC(CC(C)[C@H]1CCC2[C@H]3C(CC(=O)[C@@]21C)[C@@]1(C)CCC(O)C[C@H]1C[C@@H]3O)C(=O)O` (some centres undefined), the EC50 is > 200 µM and the IC50 was found to be 162 µM. Taken in the same sequence, the figures for `S=C1Cc2c(-c3ccccc3)cc(-c3ccc(Cl)cc3)nc2-c2ccccc2N1` were > 200 µM and 3.39 µM. Taken in the same sequence, the figures for `COC(=O)CNC(=O)C(CSC(=O)OCC1c2ccccc2-c2ccccc21)NC(=O)CCC(NC(=O)OCC1c2ccccc2-c2ccccc21)C(=O)OC` (centres undefined) were > 200 µM and 29.5 µM. The like results for `CC(C)CC(NC(=O)C(CCC(=O)OCc1ccccc1)NC(=O)OC(C)(C)C)C(=O)NC(COCc1ccccc1)C(=O)NC(Cc1ccccc1)C(=O)O` (centres undefined) (Boc-E(OBn)LS(Bn)F-OH; configuration not given here) were, in that order, > 200 µM and > 200 µM. Take `CCC1CCC23OOC(C)(CCC2C1)O[C@@H]3OC` (some centres undefined): the EC50 was > 49 µM and the IC50 is > 49 µM. Consider `COc1ccc(N=C(CS(=O)c2ccc(C)cc2)C(F)(F)F)cc1` (centres undefined), for which the EC50 was > 200 µM and the IC50 amounted to 91.2 µM. Taken in the same sequence, the figures for `O=C(CC1=Nc2nnc(-c3nnc4n3C(=O)C(CC(=O)c3cccnc3)=N4)n2C1=O)c1cccnc1` were > 15.1 µM and > 15.1 µM. For the compound `COC(=O)C1=CC2C(=O)OC1C1C(=O)NC(=O)C21` (centres undefined), the result was inactive. On the same count and under the same terms, as for `COC(=O)/C=C1/C2CC3CC(C2)C(O)C1C3` (centres undefined), the entry is “inactive”; as for `Cc1cccc(N=Nc2c(C)nn(C(=O)c3ccccc3Cl)c2C)c1`, “inactive”. Consider `CC(=O)Oc1ccc2c(c1)O/C(=C\c1ccc(O)cc1)C2=O`, for which the EC50 was > 200 µM and the IC50 came to 138 µM. Take `C=CCCCCCCCCCOC1C=CC(OC(C)=O)C(COC(C)=O)O1` (centres undefined): the EC50 is > 200 µM and the IC50 was 63.1 µM. Taken in the same sequence, the figures for `Cc1ccc(C2=C(O)C(=O)C(c3ccc(C)cc3)=C(O)C2=O)cc1` were > 52.5 µM and 26.3 µM. In the case of `COC1OC(OC)C2C(c3c(C)cc(C)cc3C)=NOC12` (centres undefined), the EC50 is > 234 µM and the IC50 is > 234 µM. As for `CCN(CC)CCNC(=O)c1nn(C)c(=S)[nH]c1=S`, the result was inactive. For the compound `ClC1c2ccccc2-c2nsnc2C1Cl` (centres undefined), the EC50 was > 28.2 µM and the half-maximal inhibitory concentration (IC50) was > 28.2 µM.

For `Cc1cc(-c2ccccc2)nc(Nc2nc3ccccc3o2)n1`, the EC50 is > 61.7 µM and the IC50 is > 61.7 µM.

For the compound `COC(=O)CNC(=O)C(CC(C)C)NC(=O)C(CC(C)C)NC(=O)OC(C)(C)C` (stereo not drawn) (Boc-Leu-Leu-Gly-OMe; configuration not given here), the result was inactive. With `CSCCC(N)CO` (centres undefined), the EC50 was > 200 µM and the half-inhibitory concentration (IC50) was > 200 µM. For the compound `O=c1ccccc2c(/C=C/c3ccccc3)nn(-c3ccccc3)c12`, the result was inactive. On the same count and under the same terms, the entry for `COS(=O)c1cc(Cl)cc(Cl)c1O` (centres undefined) is “inactive”.

As to `COC(=O)CC1NC(=O)[C@@H]1C(C)O` (some centres undefined), the EC50 is > 251 µM and the IC50 was > 251 µM.

Consider `O=S(=O)(SC1=NCCN1)c1ccc2ccccc2c1`, for which the EC50 is 22.9 µM and the IC50 turned out to be 29.5 µM.

For the compound `O=C(Nc1ccc(Cl)c(Cl)c1)C(=O)C(C(=O)c1ccccc1F)C1OC(=O)c2ccccc21` (centres undefined), the EC50 is > 195 µM and the IC50 turned out to be 14.1 µM.

Turning to `CCOP(=O)(OCC)/C(C#N)=C\c1ccc(OC(C)=O)cc1`, the EC50 was > 562 µM and the IC50 is > 562 µM. `NS(=O)(=O)c1nnc(NS(=O)(=O)c2ccccc2C(=O)O)s1`: the EC50 was > 200 µM and the IC50 was > 200 µM. In the case of `CCOC(=O)C(=Cc1ccccc1[N+](=O)[O-])C(=O)OCC`, the EC50 was > 324 µM and the IC50 was determined as 5.89 µM. For the compound `O=C(CN1CCCCC1)c1ccc2[nH]c(=O)oc2c1`, the EC50 was > 200 µM and the IC50 stood at 129 µM.

For `O=C(CCc1ccc(O)cc1)NCCc1cccc(OCc2ccccc2)c1`, the EC50 was > 200 µM and the IC50 came to 26.3 µM. Taken in the same sequence, the figures for `C[N+]12C=CC=C1C(N1CCCC1)c1scc(-c3ccc(F)cc3)c12` (centres undefined) were > 200 µM and 24.5 µM. For `O=C(NC1CCCCC1)/C(=C\c1ccccc1)NC(=O)c1ccccc1`, the EC50 is > 200 µM and the IC50 was > 200 µM.

Consider `COc1ccc(/C(Cl)=C(\C#N)c2ccc(OC)c(OC)c2)cc1OC`, for which the EC50 is > 200 µM and the IC50 turned out to be 58.9 µM. Taken in the same sequence, the figures for `COC(=O)c1cc(C(=CCC23CC4CC(CC(C4)C2)C3)c2cc(Cl)c(OC)c(C(=O)OC)c2)cc(Cl)c1OC` were > 17.4 µM and > 17.4 µM. Taken in the same sequence, the figures for `COc1ccc(C(C#N)NNC(=O)Cc2ccccc2)cc1OC` (centres undefined) were > 398 µM and 331 µM.

Consider `CC(C)=CCN1Cc2cccc3[nH]c(=S)n(c23)C[C@@H]1C`, for which the EC50 was 0.0302 µM and the IC50 worked out at 1.74 µM. `COc1ccc(C(OCC2OC(n3ccc(NC(=O)c4ccccc4)nc3=O)C(O)C2O)(c2ccccc2)c2ccccc2)cc1` (centres undefined): the EC50 is > 200 µM and the IC50 turned out to be 9.33 µM.

Turning to `S=c1sc2ccccc2n1CNc1ccccc1Cl`, the EC50 was > 200 µM and the IC50 was found to be 28.2 µM.

Consider `CC(=O)Nc1cc2cc(N)ccc2oc1=O`, for which the EC50 was > 107 µM and the IC50 was > 107 µM. Turning to `Nc1nnc(Cc2ccccc2[N+](=O)[O-])c(=O)[nH]1`, the EC50 is > 29.5 µM and the IC50 was > 29.5 µM. On to `O=C1CCc2ccccc2O1`, for which the EC50 was > 1700 µM and the IC50 worked out at 1410 µM.

As for `NS(=O)(=O)c1ccc(Nc2c3ccccc3nc3ncccc23)cc1`, the EC50 was > 200 µM and the IC50 was > 200 µM. With `COc1ccc2c(c1)[n+]([O-])c(/C(C)=N/NC(=O)CC#N)c[n+]2[O-]`, the EC50 is > 16.6 µM and the IC50 is > 16.6 µM. With `CN1C(=O)c2ccccc2N=CN1C(=O)Nc1ccccc1`, the EC50 was > 123 µM and the IC50 was > 123 µM.

On to `COc1ccccc1C=C(C#N)C#N`, for which the EC50 was > 977 µM and the IC50 is 229 µM. As to `O=C1/C(=C/c2ccc(Cl)c(Cl)c2)CNC/C1=C\c1ccc(Cl)c(Cl)c1`, the EC50 is > 16.2 µM and the IC50 was 8.71 µM. Taken in the same sequence, the figures for `CCN(CC)CCOC(=O)c1cc2cc3cc(C(=O)OCCN(CC)CC)c(=O)oc3c(C)c2oc1=O` were > 200 µM and > 200 µM.

For `COC(=O)CC1C(C)(C)C(=O)C2CC3=C4CC(=O)OC(c5ccoc5)C4(C)CCC3C1(C)C2=O` (centres undefined), the EC50 was > 55 µM and the IC50 was > 55 µM. On to `Cc1cc(C)n(C(C)(C(=O)Cc2ccccc2)n2nc(C)cc2C)n1`, for which the EC50 was > 200 µM and the IC50 is > 200 µM. `Cn1c(=O)c(Cc2c(O)c3ccccc3n(C)c2=O)c(O)c2ccccc21`: the EC50 was > 7.24 µM and the IC50 was > 7.24 µM. `S=C1NCCNC(=S)SS1`: the EC50 is > 34.7 µM and the IC50 is > 34.7 µM. Turning to `CCOc1cc2c(cc1O)/C(=N\N)C[C@@H]1[C@@H]2CC[C@]2(C)[C@@H](O)CC[C@@H]12`, the EC50 is > 2 µM and the 50% inhibitory concentration (IC50) amounted to 0.209 µM. Consider `Cc1cc(NS(=O)(=O)c2ccc(NC(=O)c3cccc4c(NNc5ccc(S(=O)(=O)N=C(N)N)cc5)c5ccccc5nc34)cc2)no1`, for which the EC50 was > 158 µM and the IC50 amounted to 63.1 µM. `Cc1ccc(NC2=N/C(=C/c3ccco3)C(Cl)=N2)cc1`: the EC50 is > 200 µM and the IC50 came to 158 µM.

Regarding `CCN(CC)C(=S)S[Se](SC(=S)N(CC)CC)(SC(=S)N(CC)CC)SC(=S)N(CC)CC`, the EC50 was > 200 µM and the IC50 came to 0.794 µM. Taken in the same sequence, the figures for `CSCCCNC(=O)c1csc(-c2csc(CCNC(=O)CNC(=O)OC(C)(C)C)n2)n1` were > 501 µM and 234 µM. The like results for `CS(=O)(=O)CCC(N)P(=O)(O)O` (centres undefined) were, in that order, > 200 µM and > 200 µM. With `COc1cc(C2c3cccc4cccc(c34)C3CCC(=O)N32)cc(OC)c1O` (centres undefined), the EC50 was > 50.1 µM and the IC50 was found to be 1.32 µM. Regarding `CCN(CC)CCOC(=O)c1cc2cc([N+](=O)[O-])ccc2oc1=O`, the EC50 was > 214 µM and the IC50 was > 214 µM. As to `N#Cc1[nH]c(=O)n(-c2cccc3ccccc23)c1N`, the EC50 was > 200 µM and the IC50 is > 200 µM. Regarding `CCN(CC)c1ccc2cc(C(=O)Nc3nc(C45CC6CC(CC(C6)C4)C5)cs3)c(=O)oc2c1`, the EC50 was > 200 µM and the IC50 was > 200 µM. For the compound `O=S(=O)(O)c1cc(N=Cc2cc(S(=O)(=O)O)c3cccnc3c2O)ccc1/C=C\c1ccc(N=Cc2cc(S(=O)(=O)O)c3cccnc3c2O)cc1S(=O)(=O)O`, the EC50 is > 38.9 µM and the IC50 was > 38.9 µM. Regarding `O=c1ccn(C2OC(CO)C(F)C2F)c(=O)[nH]1` (centres undefined), the EC50 is > 501 µM and the IC50 is > 501 µM. `CCCCCCCCCCCCCC(=O)O[C@@H]1[C@@H](C)[C@@]2(O)[C@@H](C=C(CO)C[C@]3(O)C(=O)C(C)=C[C@@H]23)[C@@H]2C(C)(C)[C@]12OC(C)=O`: the result was active.
